# Values joined by “and” are separate entries in the source; they are usually repeats but may differ in a detail not shown here. Identical values can stand only once.
# What was measured:
# [1] = system: Zika virus; assay: EC50 is reported via analysis of immunofluorescence staining. The assay has been performed by Icahn School of Medicine at Mount Sinai.; type: functional, organism-based, Chlorocebus sabaeus, VeroE6/TMPRSS2; settings: for EC90: P-gp concentration 2 uM, P-gp inhibitor Elacidar
# [2] = system: dengue virus type 2; assay: (§1) Functional immunofluorescence assay to measure dose dependent changes in antiviral-drug inhibitory efficacy against Dengue virus type 2 Thailand/16681/84 in Vero E6/TMPRSS2 cells (cotreated with P-gp inhibitor, Elacridar). Cells are treated with antiviral candidates that are serially diluted, following infection, cells are fixed. EC50 is reported via analysis of immunofluorescence staining. The assay has been performed by Icahn School of Medicine at Mount Sinai.; type: organism-based, Chlorocebus sabaeus, VeroE6/TMPRSS2; settings: Dengue virus
# [3] = system: Zika virus; assay: Functional CPE-based assay to measure dose dependent changes in antiviral-drug inhibitory efficacy against Zika virus MR766 in Vero E6 miRFP670 cells. Cells are treated with antiviral candidates that are serially diluted. EC50 is reported via analysis of MTS assay as a readout of CPE. The assay has been performed by KU Leuven.; type: organism-based, Chlorocebus sabaeus, Vero C1008; settings: Zika virus; for EC50: Vero C1008; for EC90: Vero C1008, Baseline response 0 %, Maximum response 100 %
# [4] = system: dengue virus type 2; assay: Functional assay to measure dose dependent changes in antiviral-drug inhibitory efficacy against Dengue virus type 2 New Guinea C in Vero E6 miRFP670 cells (cotreated with P-gp inhibitor, CP100356). Cells are treated with antiviral candidates that are serially diluted, following infection, cells are fixed. EC50 is reported via analysis of fluorescence intensity using high-content imager. The …; type: organism-based, Chlorocebus sabaeus, Vero C1008; settings: Dengue virus
# [5] = system: dengue virus type 2; assay: as §1, with “cells.” for “cells (cotreated with P-gp inhibitor, Elacridar).”; type: organism-based, Chlorocebus sabaeus; settings: for EC50: VeroE6/TMPRSS2
# [6] = system: Zika virus; assay: as §1, with “Zika” for “Dengue”, “PRVABC59” for “type 2 Thailand/16681/84”, “cells.” for “cells (cotreated with P-gp inhibitor, Elacridar).”; type: organism-based, Chlorocebus sabaeus; settings: for EC50: VeroE6/TMPRSS2
compound,measurement,setting,value
CC(C)Cc1nc2c(C(=O)Nc3ccc4c(c3)CNC4)cc(Br)cc2[nH]1,EC50,"[1]; Zika virus, VeroE6/TMPRSS2",> 5.56 µM
same,EC90,"[1]; Zika virus, VeroE6/TMPRSS2, Baseline response 0 %, Hill slope -10.435, Maximum measured 137.671 %, Maximum response 100 %, Minimum measured 68.671 %, R squared 0.096",> 5.56 µM
same,EC50,[2]; VeroE6/TMPRSS2,> 5.56 µM
same,EC90,"[2]; VeroE6/TMPRSS2, Maximum measured 192.149 %, Minimum measured 144.973 %, P-gp concentration 2 uM, P-gp inhibitor Elacidar",> 5.56 µM
same,EC50,[3],> 50 µM
same,EC90,"[3]; Hill slope 1.82, Maximum measured 17.962 %, Minimum measured -5.537 %, R squared 0.817",> 50 µM
same,EC50,[4]; Vero C1008,> 0.781 µM
same,EC90,"[4]; Vero C1008, Maximum measured 122.11 %, Minimum measured 121.973 %, P-gp concentration 500 nM, P-gp inhibitor CP100356",> 0.781 µM
O=C(Nc1ccc2c(c1)CNC2)c1cc(Cl)cc(-n2cccc2)c1,EC50,"[1]; Zika virus, VeroE6/TMPRSS2",> 5.56 µM
same,EC90,"[1]; Zika virus, VeroE6/TMPRSS2, Maximum measured 131.342 %, Minimum measured 97.756 %",> 5.56 µM
same,EC90,"[1]; Zika virus, VeroE6/TMPRSS2, Baseline response 0 %, Hill slope -0.378, Maximum measured 125.075 %, Maximum response 100 %, Minimum measured 52.976 %, R squared 0.223",> 5.56 µM
same,EC50,[2]; VeroE6/TMPRSS2,15.1 µM
same,EC90,"[2]; VeroE6/TMPRSS2, Baseline response 0 %, Hill slope -12.71, Maximum measured 168.092 %, Maximum response 100 %, Minimum measured 22.727 %, P-gp concentration 2 uM, R squared 0.109, P-gp inhibitor Elacidar",> 16.7 µM
same,EC50,[3],> 50 µM
same,EC90,"[3]; Hill slope 0.167, Maximum measured 17.974 %, Minimum measured 0.845 %, R squared 0.067",> 50 µM
same,EC50,[4]; Vero C1008,18.1 µM
same,EC90,"[4]; Vero C1008, Baseline response 0 %, Hill slope -1.567, Maximum measured 91.76 %, Maximum response 100 %, Minimum measured 2.031 %, P-gp concentration 500 nM, R squared 0.898, P-gp inhibitor CP100356",> 50 µM
O=C(Nc1ccc2c(c1)CNC2)c1cc(Br)cc2[nH]c(-c3ccccc3)nc12,EC50,"[1]; Zika virus, VeroE6/TMPRSS2",> 5.56 µM
same,EC90,"[1]; Zika virus, VeroE6/TMPRSS2, Maximum measured 77.487 %, Minimum measured 34.255 %",> 5.56 µM
same,EC50,[2]; VeroE6/TMPRSS2,> 50 µM
same,EC90,"[2]; VeroE6/TMPRSS2, Maximum measured 303.364 %, Minimum measured 144.726 %, P-gp concentration 2 uM, P-gp inhibitor Elacidar",> 50 µM
same,EC50,[3],< 0.391 µM
same,EC90,"[3]; Hill slope -0.169, Maximum measured 22.843 %, Minimum measured -3.22 %, R squared 0.045",< 0.391 µM
same,EC50,[4]; Vero C1008,> 50 µM
same,EC90,"[4]; Vero C1008, Baseline response 0 %, Hill slope -0.881, Maximum measured 119.709 %, Maximum response 100 %, Minimum measured 77.354 %, P-gp concentration 500 nM, R squared 0.142, P-gp inhibitor CP100356",> 50 µM
NCCCc1cccc(NC(=O)c2cc(Cl)cc(NC(=O)OCc3ccccc3)c2)n1,EC50,"[1]; Zika virus, VeroE6/TMPRSS2",0.762 µM
same,EC90,"[1]; Zika virus, VeroE6/TMPRSS2, Baseline response 0 %, Hill slope -0.324, Maximum measured 72.025 %, Maximum response 100 %, Minimum measured 4.462 %, R squared 0.463",> 16.7 µM
same,EC50,[2]; VeroE6/TMPRSS2,> 5.56 µM
same,EC90,"[2]; VeroE6/TMPRSS2, Baseline response 0 %, Hill slope -0.245, Maximum measured 101.026 %, Maximum response 100 %, Minimum measured 51.347 %, P-gp concentration 2 uM, R squared 0.141, P-gp inhibitor Elacidar",> 5.56 µM
same,EC50,[5],< 0.023 µM
same,EC90,"[5]; VeroE6/TMPRSS2, Baseline response 0 %, EC90 CI (lower) 0 uM, EC90 CI (upper) 0.069 uM, Hill slope -0.47, Maximum measured 66.667 %, Maximum response 100 %, Minimum measured 7.762 %, R squared 0.244",2.12 µM
same,EC50,[6],> 50 µM
same,EC90,"[6]; VeroE6/TMPRSS2, Maximum measured 444.624 %, Minimum measured 59.048 %",> 50 µM
Cc1cc(CN)cc(NC(=O)c2cc(Cl)cc(NC(=O)OCc3ccccc3)c2)c1,EC90,"[1]; Baseline response 0 %, Hill slope -0.823, Maximum measured 127.605 %, Maximum response 100 %, Minimum measured 3.711 %, R squared 0.613",> 5.56 µM
same,EC90,"[1]; Zika virus, VeroE6/TMPRSS2, Baseline response 0 %, Hill slope -1.09, Maximum measured 145.706 %, Maximum response 100 %, Minimum measured 48.4 %, R squared 0.191",> 3.33 µM
same,EC50,[1]; veroe6/tmprss2,3.14 µM and 0.66 µM
same,EC50,[2]; VeroE6/TMPRSS2,> 1.85 µM
same,EC90,"[2]; VeroE6/TMPRSS2, Maximum measured 126.603 %, Minimum measured 82.463 %, P-gp concentration 2 uM, P-gp inhibitor Elacidar",> 1.85 µM
same,EC50,[5],> 5.56 µM
same,EC90,"[5]; VeroE6/TMPRSS2, Maximum measured 117.926 %, Minimum measured 57.292 %",> 5.56 µM
same,EC50,[6],> 50 µM
same,EC90,"[6]; VeroE6/TMPRSS2, Maximum measured 728.77 %, Minimum measured 52.412 %",> 50 µM
O=C(Nc1cc(Cl)cc(C(=O)Nc2cccc(-c3nnn[nH]3)c2)c1)OCc1ccccc1,EC50,"[1]; Zika virus, VeroE6/TMPRSS2",2.68 µM
same,EC90,"[1]; Zika virus, VeroE6/TMPRSS2, Baseline response 0 %, Hill slope -0.321, Maximum measured 94.477 %, Maximum response 100 %, Minimum measured 40.195 %, R squared 0.392",> 16.7 µM
same,EC50,[2]; VeroE6/TMPRSS2,48.9 µM
same,EC90,"[2]; VeroE6/TMPRSS2, Baseline response 0 %, Hill slope -12.435, Maximum measured 130.492 %, Maximum response 60 %, Minimum measured 25.847 %, P-gp concentration 2 uM, R squared 0.033, P-gp inhibitor Elacidar",> 50 µM
same,EC50,[6],> 50 µM
same,EC90,"[6]; VeroE6/TMPRSS2, Maximum measured 198.65 %, Minimum measured 79.352 %",> 50 µM
CCc1cc(C(=O)Nc2cccc(CN)c2)sc1-c1ccc(Cl)cc1,EC50,"[1]; Zika virus, VeroE6/TMPRSS2",> 50 µM
same,EC90,"[1]; Zika virus, VeroE6/TMPRSS2, Baseline response 0 %, Hill slope -0.283, Maximum measured 157.581 %, Maximum response 100 %, Minimum measured 60.948 %, R squared 0.14",> 50 µM
same,EC50,[2]; VeroE6/TMPRSS2,1.48 µM
same,EC90,"[2]; VeroE6/TMPRSS2, Baseline response 0 %, Hill slope -0.734, Maximum measured 115.481 %, Maximum response 100 %, Minimum measured 26.383 %, P-gp concentration 2 uM, R squared 0.805, P-gp inhibitor Elacidar",> 5.56 µM
same,EC50,[5],0.04 µM
same,EC90,"[5]; VeroE6/TMPRSS2, Baseline response 0 %, EC90 CI (lower) 0 uM, EC90 CI (upper) […] uM, Hill slope -0.657, Maximum measured 73.173 %, Maximum response 100 %, Minimum measured 2.32 %, R squared 0.658",1.14 µM
same,EC50,[4]; Vero C1008,7.88 µM
same,EC90,"[4]; Vero C1008, Baseline response 0 %, EC90 CI (lower) 5.869 uM, EC90 CI (upper) 6.978 uM, Hill slope -10.543, Maximum measured 99.815 %, Maximum response 100 %, Minimum measured 0.348 %, P-gp concentration 500 nM, R squared 0.992, P-gp inhibitor CP100356",9.71 µM
Cc1cc(-c2ccc([C@@H](NC(=O)OCc3ccccc3)C(=O)Nc3cccc(CN)c3)cc2)cs1,EC50,"[1]; Zika virus, VeroE6/TMPRSS2",> 50 µM
same,EC90,"[1]; Zika virus, VeroE6/TMPRSS2, Maximum measured 84.809 %, Minimum measured 8.553 %",> 50 µM
same,EC50,[2]; VeroE6/TMPRSS2,> 5.56 µM
same,EC90,"[2]; VeroE6/TMPRSS2, Maximum measured 25.792 %, Minimum measured 7.149 %, P-gp concentration 2 uM, P-gp inhibitor Elacidar",> 5.56 µM
same,EC50,[5],0.145 µM
same,EC90,"[5]; VeroE6/TMPRSS2, Baseline response 0 %, Hill slope -0.322, Maximum measured 78.243 %, Maximum response 100 %, Minimum measured 15.352 %, R squared 0.327",> 5.56 µM
same,EC50,[6],> 50 µM
same,EC90,"[6]; VeroE6/TMPRSS2, Maximum measured 207.969 %, Minimum measured 85.523 %",> 50 µM
NCc1cccc(C(=O)Nc2cc(Cl)cc(NC(=O)OCc3ccccc3)c2)c1,EC90,"[1]; Baseline response 0 %, Hill slope -0.985, Maximum measured 92.072 %, Maximum response 100 %, Minimum measured 6.61 %, R squared 0.567",> 5.56 µM
same,EC90,"[1]; Zika virus, VeroE6/TMPRSS2, Baseline response 0 %, Hill slope -0.721, Maximum measured 131.562 %, Maximum response 100 %, Minimum measured 27.938 %, R squared 0.396",> 3.33 µM
same,EC50,[1]; veroe6/tmprss2,2.1 µM and 0.867 µM
same,EC50,[2]; VeroE6/TMPRSS2,3.17 µM
same,EC90,[2]; VeroE6/TMPRSS2,5.42 µM
same,EC50,[5],> 5.56 µM
same,EC90,"[5]; VeroE6/TMPRSS2, Maximum measured 181.372 %, Minimum measured 88.426 %",> 5.56 µM
O=C(O)c1cc(Cl)ccc1NS(=O)(=O)c1ccc(Oc2ccccc2Cl)cc1,EC50,[5],< 0.023 µM
same,EC90,"[5]; VeroE6/TMPRSS2, Baseline response 0 %, Hill slope -0.289, Maximum measured 50.892 %, Maximum response 100 %, Minimum measured 16.572 %, R squared 0.294",> 5.56 µM
same,EC50,[6],> 50 µM
same,EC90,"[6]; VeroE6/TMPRSS2, Baseline response 0 %, Hill slope 0.308, Maximum measured 143.489 %, Maximum response 100 %, Minimum measured 67.888 %, R squared 0.041",> 50 µM
O=C(Nc1cc(Cl)cc(C(=O)Nc2cccc(-n3nn[nH]c3=O)c2)c1)OCc1ccccc1,EC50,"[1]; Zika virus, VeroE6/TMPRSS2",0.828 µM
same,EC90,"[1]; Zika virus, VeroE6/TMPRSS2, Baseline response 0 %, Hill slope -0.989, Maximum measured 91.506 %, Maximum response 100 %, Minimum measured 6.41 %, R squared 0.606",> 5.56 µM
same,EC50,[2]; VeroE6/TMPRSS2,38.1 µM
same,EC90,"[2]; VeroE6/TMPRSS2, Baseline response 0 %, Hill slope -4.745, Maximum measured 70.688 %, Maximum response 60 %, Minimum measured 12.915 %, P-gp concentration 2 uM, R squared 0.282, P-gp inhibitor Elacidar",> 50 µM
same,EC50,[3],> 50 µM
same,EC90,"[3]; Hill slope -0.529, Maximum measured 3.199 %, Minimum measured -1.205 %, R squared 0.435",> 50 µM
same,EC50,[4]; Vero C1008,44.1 µM
same,EC90,[4]; Vero C1008,48.8 µM
same,EC50,[6],45.7 µM
same,EC90,"[6]; VeroE6/TMPRSS2, Baseline response 0 %, Hill slope -14.888, Maximum measured 123.167 %, Maximum response 100 %, Minimum measured 20.725 %, R squared 0.524",> 50 µM
